Results from patent US4022900A, “Compositions containing 1,2,3,4-tetrahydroisoquinolines used as hypotensive agents” (Marion Laboratories, Inc., priority 1972, dated 1977).
Structures can show the parent of a compound that is named as a salt. Where two headings read alike, the source gives them in different places.

Tests used:
femoral artery of a dog = assay: Peripheral vasodilator activity after administration into femoral artery of a dog; type: in vivo; details: into the femoral artery, compared with papaverine
[1] = system: systolic blood pressure of deoxycorticosterone acetate hypertensive rats; assay: Hypotensive activity in DCA/saline hypertensive rats (systolic blood pressure, tail cuff); type: in vivo, rat (male, CD strain); details: for Lowering of Blood Pressure in Hypertensive rate in mm's of Hg., 1 hr. / Lowering of Blood Pressure in Hypertensive rate in mm's of Hg., 2 hrs. / Lowering of Blood Pressure in Hypertensive rate in mm's of Hg., 4 hrs. / Lowering of Blood Pressure in Hypertensive rate in mm's of Hg., 24 hrs.: change vs predrug control, six rats; for Percent Change in Pressure from Control ± S.E., 1 Hour / Percent Change in Pressure from Control ± S.E., 2 Hours / Percent Change in Pressure from Control ± S.E., 4 Hours / Percent Change in Pressure from Control ± S.E., 24 Hours: 50 mg/kg i.p., systolic pressure, * <0.05 significance (Newman-Keuls)
Procedure: Hypertension was produced in weanling (30-day old) male rats of the CD strain obtained from the Charles River Breeding Laboratories (Wilmington, Mass.) by subcutaneously implanting about the dorsal surface of the neck a pellet of deoxycorticosterone acetate (DCA) containing 10 mg DCA in a mixture of Carbowax 4000 (Union Carbide) and Flexowax C light (Glyco Products). Their drinking water was replaced by a 1% sodium chloride solution, a procedure known to facilitate the development of an experimental hypertension, and they had free access to chow. Systolic blood pressure in the caudal arteries was measured indirectly by a pneumatic pulse transducer and a tail pressure cuff on a Physiograph Four recorder (Narco Bio-Systems, Inc., Houston, Texas) in unanesthetized but restrained rats prewarmed to 40° C., 10-15 minutes prior to the determination. The rats were kept at a temperature of 40° C. for all determinations of systolic pressure in an attempt to minimize variations in blood pressure due to marked changes in arterial tone caused by changes in temperature. Blood pressures were measured at intervals in the DCA-treated rats given saline and in non-treated control rats. After 20 days, the mean systolic pressure in the DCA-treated rats was above 150 mm Hg. Hypertension was regarded as being established in the rats at this stage and they were at intervals, usually beginning with the 30th day after DCA-implant in testing for hypotensive activity. Following a series of control blood pressure readings, a dose of 50 mg/kg of the compound under investigation was administered by intraperitoneal injection either in solution or as a suspension in 1% tragacanth solution to groups of six hypertensive rats. Blood pressures were redetermined at 1, 2, 4 and 24 hour periods following injection. At each interval, the systolic pressure was measured a minimum of five times in each rat and the average value was calculated. Mean values for the group were calculated from the individual average values and compared with their predrug control levels. The statistical significance of the changes produced by the compounds, in the doses employed, was tested by the "t" test as well as by an analysis of variance. The reductions in blood pressure obtained with the indicated representative tetrahydroisoquinoline compounds are shown in Table I. The code number for the compound and the example herein showing its preparation are both given in Table I.
(§1) Additional compounds have been tested. The toxicity data for the additional compounds tested, and their identity, is given in the following Table II while the blood pressure lowering activity of the compounds is given in the following Table III. The heading "Example Number" in the tables refers to the working example herein which discloses the compounds and its preparation. The test procedure used for determining the blood pressure lowering activity of the compounds is the same as that previously set forth herein. However, the figures in Table III are expressed as percentage change in blood pressure, rather than in mm of mercury change in blood pressure, as presented in Table I herein.

[2] = system: arterial blood pressure of anesthetized dog; assay: Arterial blood pressure in the anesthetized dog; type: in vivo; details: 5 mg/kg intravenously
[3] = Acute toxicity (LD50) in the mouse; details: in vivo; for LD50 at 24 h: read-out: Approximate Acute Toxicity (24 hrs.) In the Mouse, LD50
Procedure: 5-(3,4,5-trimethoxybenzamido)-2-methyl-1,2,3,4-tetrahydroisoquinoline (M-20) in mice has an LD-50 of about 125 to 250 mg/kg intraperitoneally.
as §1
Approximate Acute Toxicity (24 hrs.)
(a) Suspension in 1% tragacanth
(b) Solution in distilled water
(c) Solubilized with the aid of dilute acid

[4] = Table I, unit, species and route not given
[5] = ip, solubilized with the aid of dilute acid

| Compound | peripheral vasodilator activity (femoral artery of a dog) | Lowering of Blood Pressure in Hypertensive rate in mm's of Hg., 1 hr. ([1]; 50 mg/kg intraperitoneal) | Lowering of Blood Pressure in Hypertensive rate in mm's of Hg., 2 hrs. ([1]; 50 mg/kg intraperitoneal) | Lowering of Blood Pressure in Hypertensive rate in mm's of Hg., 4 hrs. ([1]; 50 mg/kg intraperitoneal) | Lowering of Blood Pressure in Hypertensive rate in mm's of Hg., 24 hrs. ([1]; 50 mg/kg intraperitoneal) | arterial blood pressure [2] | LD50 [3, 4] [mg/kg] | LD50 ([3]; ip, mice, intraperitoneally, about) [mg/kg] | Percent Change in Pressure from Control ± S.E., 1 Hour [1] [%] | Percent Change in Pressure from Control ± S.E., 2 Hours [1] [%] | Percent Change in Pressure from Control ± S.E., 4 Hours [1] [%] | Percent Change in Pressure from Control ± S.E., 24 Hours [1] | LD50 at 24 h [3, 5] [mg/kg] | LD50 at 24 h ([3]; ip, suspension in 1% tragacanth) [mg/kg] | compounds which appear most active from Table I ([1]; 50 mg/kg intraperitoneal, qualitative ranking) |
| --- | --- | --- | --- | --- | --- | --- | --- | --- | --- | --- | --- | --- | --- | --- | --- |
| COc1cc(C(=O)Nc2cccc3c2CCN(C)C3)cc(OC)c1OC [M-20, 5-(3,4,5-Trimethoxybenzamido)-2-methyl-1,2,3,4-tetrahydroisoquinoline] | peripheral vasodilator activity although less than that of papaverine | -19±3 mm's of Hg | -26±2 mm's of Hg | -15±10 mm's of Hg | -3±2 mm's of Hg | decreased arterial blood pressure | 125 to 250 | 125 to 250 | – | – | – | – | – | – | – |
| Cc1cccc(C)c1C(=O)Nc1cccc2c1CCN(C)C2 [M-58, 5-(2,6-Dimethylbenzamido)-2-methyl-1,2,3,4-tetrahydroisoquinoline] | – | – | – | – | – | – | – | – | -6.1 ± 1.7 | -2.4 ± 0.6 | -5.2 ± 1.8 | +2.0 ± 2.1% | 125 to 250 | – | – |
| CCc1cccc(CC)c1C(=O)Nc1cccc2c1CCN(C)C2 [M-66, 5-(2,6-Diethylbenzamido)-2-methyl-1,2,3,4-tetrahydroisoquinoline] | – | – | – | – | – | – | – | – | -5.7 ± 3.0 | -7.5 ± 4.6 | -6.1 ± 2.8 | -2.1 ± 2.3% | 125 to 250 | – | – |
| CN1CCc2c(cccc2NC(=O)c2ccccc2Br)C1 [M-60, 5-(2-Bromobenzamido)-2-methyl-1,2,3,4-tetrahydroisoquinoline] | – | -12±4 mm's of Hg | -10±8 mm's of Hg | -20±3 mm's of Hg | -26±4 mm's of Hg | – | 125 to 250 | – | – | – | – | – | – | – | – |
| CCCN1CCc2c(cccc2NC(=O)c2ccc(OC)cc2)C1 [M-50, 5-(4-methoxybenzamido)-2-n-propyl-1,2,3,4-tetrahydroisoquinoline] | – | – | – | – | – | – | – | – | -11.3 ± 1.9 | -17.8 ± 1.4 | -10.2 ± 2.8 | -6.2% | 125 to 250 | – | – |
| COc1cc(C(=O)Nc2cccc3c2CCNC3)cc(OC)c1OC [M-46, 5-(3,4,5-Trimethoxybenzamido)-1,2,3,4-tetrahydroisoquinoline HCl] | – | -26±10 mm's of Hg | -25±7 mm's of Hg | -11±4 mm's of Hg | -18±4 mm's of Hg | – | 250 to 500 | – | – | – | – | – | – | – | – |
| COc1ccc(C(=O)Nc2cccc3c2CCNC3)cc1 [M-44, 5-(4-Methoxybenzamido)-1,2,3,4-tetrahydroisoquinoline HCl] | – | – | – | – | – | – | – | – | -8.8 ± 4.8 | -6.5 ± 3.7 | -8.3 ± 2.4 | -6.4 ± 1.3% | – | 500 to 1000 | – |
| COc1ccc(C(=O)Nc2cccc3c2CCNC3)cc1OC [M-34, 5-(3,4-Dimethoxybenzamido)-1,2,3,4-tetrahydroisoquinoline HCl] | – | -33±5 mm's of Hg | -28±7 mm's of Hg | -23±4 mm's of Hg | -2±6 mm's of Hg | – | 500 to 1000 | – | – | – | – | – | – | – | most active |
